Data taken from the NIST ThermoML archive (doi:10.1016/j.jct.2018.12.031).

Experiment: xn = mol fraction of the nth substance listed
Conditions: 100 kPa, Liquid; for speed of sound: Frequency=3 MHz, Linear variable-path acoustic interferometer; for mass density: Pycnometric method

N#Cc1ccccc1 [benzonitrile] + C=C(C)C(=O)OC
Conditions	mass density [kg/m3]	speed of sound [m/s]
293.15 K, x1 = 0.0652	948.11	1220.4
293.15 K, x1 = 0.1303	952.71	1239.9
293.15 K, x1 = 0.1922	956.98	1258.1
293.15 K, x1 = 0.271	962.27	1279.6
293.15 K, x1 = 0.3371	966.59	1296.9
293.15 K, x1 = 0.4174	971.69	1316.8
293.15 K, x1 = 0.4872	976	1333.2
293.15 K, x1 = 0.5689	980.9	1351.4
293.15 K, x1 = 0.6398	985.02	1366.6
293.15 K, x1 = 0.7089	988.92	1381.1
293.15 K, x1 = 0.7767	992.63	1394.4
293.15 K, x1 = 0.8571	996.88	1410
293.15 K, x1 = 0.9252	1000.34	1422.4
293.15 K, x1 = 1	1003.99	1436.9
298.15 K, x1 = 0.0652	942.55	1203.9
298.15 K, x1 = 0.1303	947.32	1223.6
298.15 K, x1 = 0.1922	951.75	1241.7
298.15 K, x1 = 0.271	957.23	1263.3
298.15 K, x1 = 0.3371	961.71	1280.2
298.15 K, x1 = 0.4174	966.99	1299.9
298.15 K, x1 = 0.4872	971.45	1316.2
298.15 K, x1 = 0.5689	976.51	1334.3
298.15 K, x1 = 0.6398	980.77	1349.3
298.15 K, x1 = 0.7089	984.8	1363.6
298.15 K, x1 = 0.7767	988.63	1376.7
298.15 K, x1 = 0.8571	993.01	1392.3
298.15 K, x1 = 0.9252	996.57	1404.6
298.15 K, x1 = 1	1000.32	1418.2
303.15 K, x1 = 0.0652	936.99	1189.3
303.15 K, x1 = 0.1303	941.93	1209
303.15 K, x1 = 0.1922	946.52	1227
303.15 K, x1 = 0.271	952.19	1248.3
303.15 K, x1 = 0.3371	956.83	1265.4
303.15 K, x1 = 0.4174	962.29	1284.8
303.15 K, x1 = 0.4872	966.9	1300.8
303.15 K, x1 = 0.5689	972.12	1319
303.15 K, x1 = 0.6398	976.52	1333.8
303.15 K, x1 = 0.7089	980.68	1348
303.15 K, x1 = 0.7767	984.63	1360.9
303.15 K, x1 = 0.8571	989.14	1376
303.15 K, x1 = 0.9252	992.8	1388.2
303.15 K, x1 = 1	996.65	1400.7
308.15 K, x1 = 0.0652	931.43	1173.8
308.15 K, x1 = 0.1303	936.55	1193.9
308.15 K, x1 = 0.1922	941.29	1211.7
308.15 K, x1 = 0.271	947.15	1232.7
308.15 K, x1 = 0.3371	951.93	1249.6
308.15 K, x1 = 0.4174	957.57	1268.8
308.15 K, x1 = 0.4872	962.33	1284.7
308.15 K, x1 = 0.5689	967.73	1302.9
308.15 K, x1 = 0.6398	972.27	1317.9
308.15 K, x1 = 0.7089	976.56	1332
308.15 K, x1 = 0.7767	980.63	1345.5
308.15 K, x1 = 0.8571	985.27	1360.6
308.15 K, x1 = 0.9252	989.03	1372
308.15 K, x1 = 1	992.98	1384
313.15 K, x1 = 0.0652	925.87	1157
313.15 K, x1 = 0.1303	931.16	1177.3
313.15 K, x1 = 0.1922	936.06	1195.3
313.15 K, x1 = 0.271	942.12	1216.5
313.15 K, x1 = 0.3371	947.05	1233.2
313.15 K, x1 = 0.4174	952.87	1252.4
313.15 K, x1 = 0.4872	957.78	1268.5
313.15 K, x1 = 0.5689	963.35	1286.5
313.15 K, x1 = 0.6398	968.02	1302.2
313.15 K, x1 = 0.7089	972.44	1316.5
313.15 K, x1 = 0.7767	976.63	1330.5
313.15 K, x1 = 0.8571	981.4	1345.5
313.15 K, x1 = 0.9252	985.26	1357.2
313.15 K, x1 = 1	989.31	1368.2
318.15 K, x1 = 0.0652	920.31	1140.3
318.15 K, x1 = 0.1303	925.77	1160.8
318.15 K, x1 = 0.1922	930.83	1179
318.15 K, x1 = 0.271	937.08	1200
318.15 K, x1 = 0.3371	942.18	1216.8
318.15 K, x1 = 0.4174	948.18	1236
318.15 K, x1 = 0.4872	953.23	1251.9
318.15 K, x1 = 0.5689	958.96	1270.3
318.15 K, x1 = 0.6398	963.77	1286
318.15 K, x1 = 0.7089	968.31	1300.9
318.15 K, x1 = 0.7767	972.61	1315
318.15 K, x1 = 0.8571	977.51	1330.8
318.15 K, x1 = 0.9252	981.48	1342.4
318.15 K, x1 = 1	985.64	1352.9

C=C(C)C(=O)OCC [ethyl 2-methylpropenoate] + N#Cc1ccccc1
Conditions	mass density [kg/m3]	speed of sound [m/s]
293.15 K, x2 = 0	912.3	1196.8
293.15 K, x2 = 0.0711	918.32	1212.4
293.15 K, x2 = 0.1419	924.37	1228
293.15 K, x2 = 0.2152	930.7	1244.1
293.15 K, x2 = 0.2872	936.99	1259.8
293.15 K, x2 = 0.3568	943.14	1274.9
293.15 K, x2 = 0.4307	949.76	1290.9
293.15 K, x2 = 0.4991	955.96	1306
293.15 K, x2 = 0.5752	962.96	1323.3
293.15 K, x2 = 0.6431	969.29	1339.2
293.15 K, x2 = 0.7177	976.35	1357.7
293.15 K, x2 = 0.7773	982.06	1373
293.15 K, x2 = 0.8576	989.86	1394.7
293.15 K, x2 = 0.9289	996.89	1414.8
298.15 K, x2 = 0	907.18	1176.9
298.15 K, x2 = 0.0711	913.3	1193
298.15 K, x2 = 0.1419	919.45	1208.9
298.15 K, x2 = 0.2152	925.88	1225
298.15 K, x2 = 0.2872	932.27	1240.7
298.15 K, x2 = 0.3568	938.52	1255.7
298.15 K, x2 = 0.4307	945.23	1271.6
298.15 K, x2 = 0.4991	951.53	1286.8
298.15 K, x2 = 0.5752	958.64	1304.2
298.15 K, x2 = 0.6431	965.07	1320
298.15 K, x2 = 0.7177	972.24	1338.5
298.15 K, x2 = 0.7773	978.04	1354
298.15 K, x2 = 0.8576	985.97	1375.9
298.15 K, x2 = 0.9289	993.11	1396.3
303.15 K, x2 = 0	902.06	1157.6
303.15 K, x2 = 0.0711	908.28	1174.2
303.15 K, x2 = 0.1419	914.53	1190.4
303.15 K, x2 = 0.2152	921.06	1206.4
303.15 K, x2 = 0.2872	927.55	1222.1
303.15 K, x2 = 0.3568	933.89	1237.4
303.15 K, x2 = 0.4307	940.7	1253.4
303.15 K, x2 = 0.4991	947.1	1268.4
303.15 K, x2 = 0.5752	954.32	1285.8
303.15 K, x2 = 0.6431	960.85	1301.7
303.15 K, x2 = 0.7177	968.13	1320.4
303.15 K, x2 = 0.7773	974.02	1336
303.15 K, x2 = 0.8576	982.07	1358.2
303.15 K, x2 = 0.9289	989.33	1379.1
308.15 K, x2 = 0	896.94	1139.4
308.15 K, x2 = 0.0711	903.26	1156.4
308.15 K, x2 = 0.1419	909.61	1172.7
308.15 K, x2 = 0.2152	916.24	1188.9
308.15 K, x2 = 0.2872	922.82	1204.6
308.15 K, x2 = 0.3568	929.26	1219.8
308.15 K, x2 = 0.4307	936.17	1236
308.15 K, x2 = 0.4991	942.67	1251.3
308.15 K, x2 = 0.5752	949.99	1268.7
308.15 K, x2 = 0.6431	956.62	1284.7
308.15 K, x2 = 0.7177	964.02	1303.5
308.15 K, x2 = 0.7773	970	1319.3
308.15 K, x2 = 0.8576	978.17	1341.8
308.15 K, x2 = 0.9289	985.54	1362.6
313.15 K, x2 = 0	891.83	1121.5
313.15 K, x2 = 0.0711	898.24	1138.9
313.15 K, x2 = 0.1419	904.68	1155.3
313.15 K, x2 = 0.2152	911.41	1171.7
313.15 K, x2 = 0.2872	918.09	1187.4
313.15 K, x2 = 0.3568	924.62	1202.7
313.15 K, x2 = 0.4307	931.64	1218.9
313.15 K, x2 = 0.4991	938.23	1234.1
313.15 K, x2 = 0.5752	945.66	1251.8
313.15 K, x2 = 0.6431	952.39	1268.2
313.15 K, x2 = 0.7177	959.9	1287.3
313.15 K, x2 = 0.7773	965.97	1303.5
313.15 K, x2 = 0.8576	974.27	1326.1
313.15 K, x2 = 0.9289	981.75	1347.2
318.15 K, x2 = 0	886.71	1104.6
318.15 K, x2 = 0.0711	893.22	1122.5
318.15 K, x2 = 0.1419	899.75	1139.1
318.15 K, x2 = 0.2152	906.58	1155.6
318.15 K, x2 = 0.2872	913.35	1171.4
318.15 K, x2 = 0.3568	919.98	1186.5
318.15 K, x2 = 0.4307	927.11	1202.7
318.15 K, x2 = 0.4991	933.79	1217.9
318.15 K, x2 = 0.5752	941.33	1235.6
318.15 K, x2 = 0.6431	948.16	1252.3
318.15 K, x2 = 0.7177	955.78	1271.8
318.15 K, x2 = 0.7773	961.94	1288.2
318.15 K, x2 = 0.8576	970.37	1311.3
318.15 K, x2 = 0.9289	977.96	1332.3
